As usually defined, the IC50 is the concentration needed to halve the response being measured. A high value points to lower potency.

The structures appear in SMILES notation. Where only a bound is given, the exact number is not on record here.

Our source for the IC50 values is BindingDB's records for patent US20240425499 (Halia Therapeutics, 2024).

For the assay, the target named is T1, Tyrosine-protein kinase receptor TYRO3 (Homo sapiens, UniProt Q06418).
T1 sequence (Q06418 whole entry): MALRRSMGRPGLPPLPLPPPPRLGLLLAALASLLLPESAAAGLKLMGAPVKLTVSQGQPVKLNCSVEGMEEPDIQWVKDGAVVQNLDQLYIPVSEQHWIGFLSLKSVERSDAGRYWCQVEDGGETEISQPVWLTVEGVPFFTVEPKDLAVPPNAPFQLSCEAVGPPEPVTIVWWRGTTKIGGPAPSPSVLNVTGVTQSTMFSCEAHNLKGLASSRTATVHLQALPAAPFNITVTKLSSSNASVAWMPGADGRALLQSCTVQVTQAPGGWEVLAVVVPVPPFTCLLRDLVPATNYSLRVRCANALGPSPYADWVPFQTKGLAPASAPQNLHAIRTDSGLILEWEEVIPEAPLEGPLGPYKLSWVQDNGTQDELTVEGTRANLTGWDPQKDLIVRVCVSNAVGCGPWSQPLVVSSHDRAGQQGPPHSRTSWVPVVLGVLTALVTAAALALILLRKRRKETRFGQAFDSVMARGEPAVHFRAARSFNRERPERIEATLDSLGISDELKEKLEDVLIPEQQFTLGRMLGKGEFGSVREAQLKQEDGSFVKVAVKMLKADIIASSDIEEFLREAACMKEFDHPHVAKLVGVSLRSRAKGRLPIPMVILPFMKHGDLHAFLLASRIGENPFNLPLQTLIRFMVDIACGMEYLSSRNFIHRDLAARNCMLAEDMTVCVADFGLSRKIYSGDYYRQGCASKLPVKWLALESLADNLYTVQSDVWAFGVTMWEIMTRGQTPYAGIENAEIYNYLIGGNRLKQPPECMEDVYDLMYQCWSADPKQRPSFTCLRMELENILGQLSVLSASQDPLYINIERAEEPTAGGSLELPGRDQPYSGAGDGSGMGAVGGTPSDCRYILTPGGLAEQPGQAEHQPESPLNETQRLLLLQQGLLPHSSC
Nature of the assay: TYRO3 Enzymatic Assay. Here is the method: Poly(Glu, Tyr) sodium salt (Glu:Tyr (4:1), quality level 200, molecular weight 5,000-20,000, obtained from Sigma Aldrich, catalogue #P7244, assay concentration 0.20 mg/mL) and recombinant human TYRO3 (obtained from ThermoFisher Scientific, catalogue #PV3828, assay concentration 2 nM) were mixed in assay buffer (20 mM Hepes pH 7.5, 10 mM MgCl2, 1 mM EGTA, 0.02% Brij35, 0.02 mg/ml BSA, 0.1 mM Na3VO4, 2 mM DTT, 1% DMSO, with added MnCl2 at a final concentration of 2 mM). Compounds of interest (in DMSO, serial 3-fold dilution from 10 μM to 0.5 nM) or control (1% DMSO) were dispensed into the kinase reaction mixture by Acoustic technology (Echo550; nanoliter range). After incubation at room temperature for 20 minutes, the kinase reaction was initiated by addition of [32P]-ATP (Specific activity 10 μCi/μl) and the mixture was incubated at room temperature for 2 hours. The reaction was then stopped by spotting the reaction mixture on strips of phosphocellulose P81 paper. Following washing, the radioactivity of the P81 paper was measured and kinase activity data were expressed as the percent remaining kinase activity in test samples compared to vehicle (dimethyl sulfoxide) reactions.
For the molecule `COC1CCN(Cc2ccc(-c3cnc4[nH]cc(-c5ccc6[nH]ccc6c5)c4c3)cc2)CC1` [US20240425499, Compound 45], the concentration for half-maximal inhibition (IC50) is less than 51 nM.

In turn, `CN(C)Cc1[nH]c2ncc(-c3ccc(CN4CCCC(O)C4)cc3)cc2c1-c1cccc(F)c1` (stereo unspecified) [US20240425499, Compound 87] had an IC50 greater than 501 nM.

The molecule `OC1CCCN(Cc2ccc(-c3cnc4[nH]c(-c5ccoc5)c(-c5ccnc(F)c5)c4c3)cc2)C1` (stereo unspecified) [US20240425499, Compound 86] displayed an IC50 of less than 51 nM.

`CCc1[nH]c2ncc(-c3ccc(CN4CCCC(O)C4)cc3)cc2c1-c1cccc(F)c1` (stereo unspecified) [US20240425499, Compound 57] gave an IC50 of less than 51 nM.

Molecule `OC1CCCN(Cc2ccc(-c3cnc4[nH]cc(-c5ccc6cn[nH]c6c5)c4c3)cc2)C1` (stereo unspecified) [US20240425499, Compound 48] yielded an IC50 of less than 51 nM.

Molecule `OC1CCCN(Cc2ccc(-c3cnc4[nH]c(CC5CC5)c(-c5cccc(F)c5)c4c3)cc2)C1` (stereo unspecified) [US20240425499, Compound 90] came in with an IC50 of less than 51 nM.

Turning to `COCc1[nH]c2ncc(-c3ccc(CN4CCCC(O)C4)cc3)cc2c1-c1cccc(F)c1` (stereo unspecified) [US20240425499, Compound 63], the IC50 is less than 51 nM.

`N#Cc1ccc(-c2c[nH]c3ncc(-c4ccc(CN5CCCC(O)C5)cc4)cc23)cc1` (stereo unspecified) [US20240425499, Compound 14] gave a 50% inhibitory concentration (IC50) of less than 51 nM.

For the molecule `OC1CCCN(Cc2ccc(-c3cnc4[nH]cc(-c5cccc(C(F)F)c5)c4c3)cc2)C1` (stereo unspecified) [US20240425499, Compound 9], the IC50 was less than 51 nM.

Turning to `OC1CCN(Cc2ccc(-c3cnc4[nH]cc(-c5ccc6[nH]ccc6c5)c4c3)cc2)CC1` [US20240425499, Compound 78], the 50% inhibitory concentration (IC50) is less than 51 nM.

In the case of `CCc1[nH]c2ncc(-c3ccc(CN4CCCC(O)C4)cc3)cc2c1-c1ccc(OC)nc1` (stereo unspecified) [US20240425499, Compound 59], the IC50 was less than 51 nM.

Molecule `OC1CCCN(Cc2ccc(-c3cnc4[nH]cc(-c5ccc(C(F)F)nc5)c4c3)cc2)C1` (stereo unspecified) [US20240425499, Compound 23] came in with a concentration for half-maximal inhibition (IC50) of less than 51 nM.

Molecule `CC1(O)CCN(Cc2ccc(-c3cnc4[nH]cc(-c5ccc6[nH]ccc6c5)c4c3)cc2)CC1` [US20240425499, Compound 76] displayed a 50% inhibitory concentration (IC50) of less than 51 nM.

`CN(C)Cc1ccc(-c2c[nH]c3ncc(-c4ccc(CN5CCCC(O)C5)cc4)cc23)cc1` (stereo unspecified) [US20240425499, Compound 17] yielded an IC50 of less than 51 nM.

As to `COCc1[nH]c2ncc(-c3ccc(CN4CCCC(O)C4)cc3)cc2c1-c1ccnc(F)c1` (stereo unspecified) [US20240425499, Compound 65], the IC50 is less than 51 nM.

The molecule `Cc1nc2cc(-c3c[nH]c4ncc(-c5ccc(CN6CCCC(O)C6)cc5)cc34)cnc2o1` (stereo unspecified) [US20240425499, Compound 84] yielded an IC50 of less than 51 nM.

`OC1CCCN(Cc2ccc(-c3cnc4[nH]cc(-c5cccc6[nH]ncc56)c4c3)cc2)C1` (stereo unspecified) [US20240425499, Compound 49] registered an IC50 of less than 51 nM.

`COc1ccc(-c2c[nH]c3ncc(-c4ccc(N5CCC(C)(O)CC5)cc4)cc23)cn1` [US20240425499, Compound 72] showed a half-inhibitory concentration (IC50) greater than 501 nM.

The molecule `COc1ccc(-c2c[nH]c3ncc(-c4ccc(CN5CCCC(O)C5)cc4)cc23)cc1C#N` (stereo unspecified) [US20240425499, Compound 18] came in with a 50% inhibitory concentration (IC50) of less than 51 nM.

Molecule `OC1CCCN(Cc2ccc(-c3cnc4[nH]cc(-c5cccc(F)c5)c4c3)cc2)C1` (stereo unspecified) [US20240425499, Compound 4] showed a concentration for half-maximal inhibition (IC50) of less than 51 nM.

Regarding `COCc1[nH]c2ncc(-c3ccc(CN4CCCC(O)C4)cc3)cc2c1-c1ccnc(C(F)F)c1` (stereo unspecified) [US20240425499, Compound 66], the half-maximal inhibitory concentration (IC50) is less than 51 nM.

In the case of `CCOCc1[nH]c2ncc(-c3ccc(CN4CCCC(O)C4)cc3)cc2c1-c1cccc(F)c1` (stereo unspecified) [US20240425499, Compound 67], the 50% inhibitory concentration (IC50) is less than 51 nM.

The molecule `c1cc2cc(-c3c[nH]c4ncc(-c5ccc(CN6CCCCC6)cc5)cc34)ccc2[nH]1` [US20240425499, Compound 79] came in with an IC50 of less than 51 nM.

For `OC1CCCN(Cc2ccc(-c3cnc4[nH]cc(-c5ccc6c(c5)CCNC6)c4c3)cc2)C1` (stereo unspecified) [US20240425499, Compound 80], the half-inhibitory concentration (IC50) is less than 51 nM.

As to `COC1CN(Cc2ccc(-c3cnc4[nH]cc(-c5ccc6[nH]ccc6c5)c4c3)cc2)C1` [US20240425499, Compound 46], the IC50 was less than 51 nM.

`Cc1cccc(-c2c[nH]c3ncc(-c4ccc(CN5CCCC(O)C5)cc4)cc23)c1` (stereo unspecified) [US20240425499, Compound 2] returned a half-maximal inhibitory concentration (IC50) of less than 51 nM.

As for `OC1CCCN(Cc2ccc(-c3cnc4[nH]cc(-c5cnc6[nH]ccc6c5)c4c3)cc2)C1` (stereo unspecified) [US20240425499, Compound 47], the IC50 is less than 51 nM.

`OC1CN(Cc2ccc(-c3cnc4[nH]cc(-c5ccc6[nH]ccc6c5)c4c3)cc2)C1` [US20240425499, Compound 44] returned a half-inhibitory concentration (IC50) of less than 51 nM.

The molecule `OC1CCCN(Cc2ccc(-c3cnc4[nH]cc(-c5cc(F)cc(F)c5)c4c3)cc2)C1` (stereo unspecified) [US20240425499, Compound 12] registered a concentration for half-maximal inhibition (IC50) of less than 51 nM.

`COc1ccc(-c2c[nH]c3ncc(-c4ccc(CN5CC(O)CC(F)(F)C5)cc4)cc23)cn1` (stereo unspecified) [US20240425499, Compound 31] registered a 50% inhibitory concentration (IC50) greater than 501 nM.

As to `N#Cc1cccc(-c2c[nH]c3ncc(-c4ccc(CN5CCCC(O)C5)cc4)cc23)c1` (stereo unspecified) [US20240425499, Compound 15], the concentration for half-maximal inhibition (IC50) was less than 51 nM.

Consider `CC(C)(O)c1ccc(-c2c[nH]c3ncc(-c4ccc(CN5CCCC(O)C5)cc4)cc23)cc1` (stereo unspecified) [US20240425499, Compound 85], for which the IC50 was less than 51 nM.

`COc1ccc(-c2c[nH]c3ncc(-c4ccc(CN5CC(CO)CC(F)(F)C5)cc4)cc23)cn1` (stereo unspecified) [US20240425499, Compound 33] yielded a half-maximal inhibitory concentration (IC50) greater than 501 nM.

As for `N#Cc1cc(-c2c[nH]c3ncc(-c4ccc(CN5CCCC(O)C5)cc4)cc23)ccc1O` (stereo unspecified) [US20240425499, Compound 53], the concentration for half-maximal inhibition (IC50) was less than 51 nM.

Molecule `CCc1[nH]c2ncc(-c3ccc(CN4CCCC(O)C4)cc3)cc2c1-c1ccc(C(F)F)nc1` (stereo unspecified) [US20240425499, Compound 58] gave a 50% inhibitory concentration (IC50) of less than 51 nM.

For the molecule `CCc1[nH]c2ncc(-c3ccc(CN4CCCC(O)C4)cc3)cc2c1-c1ccnc(F)c1` (stereo unspecified) [US20240425499, Compound 60], the IC50 is less than 51 nM.

As for `COc1ccc(-c2c[nH]c3ncc(-c4ccc(CN5CCCC(F)(F)C5)cc4)cc23)cn1` [US20240425499, Compound 41], the IC50 was greater than 501 nM.

Molecule `COc1ccc(-c2c[nH]c3ncc(-c4ccc(C(C)N5CCCC(O)C5)cc4)cc23)cn1` (stereo unspecified) [US20240425499, Compound 75] gave a half-inhibitory concentration (IC50) of less than 51 nM.

Consider `Cc1nc2cc(-c3c[nH]c4ncc(-c5ccc(CN6CCCC(O)C6)cc5)cc34)ccc2o1` (stereo unspecified) [US20240425499, Compound 51], for which the IC50 was less than 51 nM.

On to `CCc1[nH]c2ncc(-c3ccc(CN4CCCC(O)C4)cc3)cc2c1-c1ccnc(C(F)F)c1` (stereo unspecified) [US20240425499, Compound 61], for which the IC50 is less than 51 nM.

Molecule `OC1CCCN(Cc2ccc(-c3cnc4[nH]cc(-c5ccc6ocnc6c5)c4c3)cc2)C1` (stereo unspecified) [US20240425499, Compound 50] yielded an IC50 of less than 51 nM.

The molecule `Oc1ccc(-c2c[nH]c3ncc(-c4ccc(CN5CCCC(O)C5)cc4)cc23)cc1` (stereo unspecified) [US20240425499, Compound 16] registered an IC50 of less than 51 nM.

Consider `OC1CCCN(Cc2ccc(-c3cnc4[nH]cc(-c5cc(F)cc(C(F)(F)F)c5)c4c3)cc2)C1` (stereo unspecified) [US20240425499, Compound 13], for which the half-inhibitory concentration (IC50) was greater than 501 nM.

`OC1CCCN(Cc2ccc(-c3cnc4[nH]cc(-c5cc(F)c6ocnc6c5)c4c3)cc2)C1` (stereo unspecified) [US20240425499, Compound 52] had an IC50 of less than 51 nM.

In the case of `OCc1ccc(-c2c[nH]c3ncc(-c4ccc(CN5CCCC(O)C5)cc4)cc23)cc1` (stereo unspecified) [US20240425499, Compound 83], the IC50 is less than 51 nM.

`COc1ccc(-c2c(Cl)[nH]c3ncc(-c4ccc(CN5CCCC(O)C5)cc4)cc23)cn1` (stereo unspecified) [US20240425499, Compound 56] displayed an IC50 of less than 51 nM.
